In brackets after ≈: the same amount, converted by molar mass. Activity calls are given as the source filed them. The rule behind the calls is not given here.
What was measured:
Staphylococcus aureus = assay: Antimicrobial activity against Staphylococcus aureus after 18 hrs by serial twofold dilution test; type: functional
Bacillus cereus = assay: Inhibition of NorA MDR efflux pump in Bacillus cereus assessed as fold increase in antimicrobial activity of berberine at 10 ug/ml after 24 hrs by twofold serial dilution method
[1] = molecular target: T1, Quinolone resistance protein NorA (Staphylococcus aureus) (UniProt P0A0J7); assay: Inhibition of NorA MDR efflux pump in Staphylococcus aureus assessed as increase in antimicrobial activity of tetracycline at 10 ug/ml after 18 hrs by twofold serial dilution method
T1 sequence (whole entry): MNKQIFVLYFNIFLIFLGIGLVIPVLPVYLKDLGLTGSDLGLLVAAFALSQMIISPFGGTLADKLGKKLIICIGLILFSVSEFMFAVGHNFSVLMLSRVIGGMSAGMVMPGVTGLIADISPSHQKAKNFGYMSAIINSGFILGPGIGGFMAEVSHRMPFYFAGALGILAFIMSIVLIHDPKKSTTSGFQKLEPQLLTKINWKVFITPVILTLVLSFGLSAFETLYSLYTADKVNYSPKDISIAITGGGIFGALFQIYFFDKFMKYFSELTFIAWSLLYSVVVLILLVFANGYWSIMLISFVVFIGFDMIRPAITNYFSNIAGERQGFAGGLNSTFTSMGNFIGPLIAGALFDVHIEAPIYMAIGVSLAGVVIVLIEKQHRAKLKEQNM

[2] = molecular target: T1, Quinolone resistance protein NorA (Staphylococcus aureus); assay: Inhibition of NorA MDR efflux pump in Staphylococcus aureus assessed as increase in antimicrobial activity of erythromycin at 10 ug/ml after 18 hrs by twofold serial dilution method
[3] = molecular target: T1, Quinolone resistance protein NorA (Staphylococcus aureus); assay: Inhibition of NorA MDR efflux pump in Staphylococcus aureus assessed as increase in antimicrobial activity of berberine at 10 ug/ml after 18 hrs by twofold serial dilution method

In the case of `C=CC(C)(C)c1cc(C2COc3c(CC=C(C)C)c(O)cc(O)c3C2=O)c(O)cc1O` (stereo not drawn) [DALVERSINOL A], the MIC (Staphylococcus aureus) is reported as 31.3 µg/mL (≈ 73.7 µM).

For `C=CC(C)(C)c1cc([C@@H]2CC(=O)c3c(O)cc(O)c(CC=C(C)C)c3O2)c(O)cc1O`, the MIC (Staphylococcus aureus) was 7.8 µg/mL (≈ 18.4 µM).

For `COc1c(C)c(O)c(C)c(O)c1C(=O)/C=C/c1ccccc1`, the fold change (FC) (Bacillus cereus) was 30, the Activity [1] was “Active” and the Activity [2] was “Active”. The Activity [3] was “Active” and the MIC (Staphylococcus aureus) was 250 µg/mL (≈ 838 µM).

Work on `COc1ccc(/C=C/c2cc(OC)cc(OC)c2)cc1` [TRISMETHOXYRESVERATROL] yielded an MIC (Staphylococcus aureus) of 500 µg/mL (≈ 1850 µM).

Source: ChEMBL document CHEMBL1146518, “Phenolic metabolites of Dalea versicolor that enhance antibiotic activity against model pathogenic bacteria” (2004)
